The values that follow come from ChEMBL document CHEMBL2401623, “Synthesis and antitumor activity of novel 3,4-diaryl squaric acid analogs” (Eur J Med Chem, 2013).

Calls of active or inactive are those of the source. The rule behind the calls is not given here.

One experiment relates to CCRF-CEM. Briefly: Cytotoxicity against human CEM cells assessed as growth inhibition after 72 hrs by MTT assay. The experiment is classed as functional, cell-based.
Experiment [1] deals with MCF7. Briefly: Cytotoxicity against human MCF7 cells assessed as growth inhibition after 72 hrs by MTT assay. It is filed as functional, cell-based. Particulars: MCF7, 72 h.
The next experiment deals with HepG2. Description: Cytotoxicity against human HepG2 cells assessed as growth inhibition after 72 hrs by MTT assay. The experiment is classed as functional, cell-based. Particulars: HepG2, 72 h.
Experiment [2] deals with Bel-7402. Briefly: Cytotoxicity against human Bel7402 cells assessed as growth inhibition after 72 hrs by MTT assay. Particulars: Bel-7402, 72 h. The experiment is classed as functional, cell-based.
The next experiment concerns SMMC-7721. Description: Cytotoxicity against human SMMC7721 cells assessed as growth inhibition after 72 hrs by MTT assay. It is filed as functional, cell-based. Conditions: SMMC-7721, 72 h.
Experiment [3] relates to MCF7. Briefly: Ratio of combretastatin A-4 IC50 to compound IC50 for human MCF7 cells. The experiment is classed as functional.
For experiment [4], the system named is Bel-7402. Description: Ratio of combretastatin A-4 IC50 to compound IC50 for human Bel7402 cells. It is filed as functional.
The test system of experiment [5] is MCF7. Description: Cell cycle arrest in human MCF7 cells assessed as accumulation at G2/M phase at 0.02 uM after 24 hrs by propidium iodide staining-based flow cytometric analysis. The experiment is classed as functional.
A further experiment has as its system SW1990. Description: Cytotoxicity against human SW1990 cells assessed as growth inhibition after 72 hrs by MTT assay. Particulars: SW1990, 72 h. The experiment is classed as functional, cell-based.
A further experiment has as its system HCT-116. Description: Cytotoxicity against human HCT116 cells assessed as growth inhibition after 72 hrs by MTT assay. The experiment is classed as functional, cell-based. Particulars: HCT-116, 72 h.
Experiment [6] relates to MCF7. Description: Cell cycle arrest in human MCF7 cells assessed as accumulation at G2/M phase after 24 hrs by propidium iodide staining-based flow cytometric analysis. It is filed as functional.

For `COc1ccc(-c2c(-c3ccc(OC)c(OC)c3)c(=O)c2=O)cc1`, the IC50 in the experiment with CCRF-CEM was 12.7 µM.

Regarding `COc1ccc(/C=C\c2cc(OC)c(OC)c(OC)c2)cc1O` [COMBRETASTATIN A4], the results for the IC50 with MCF7 [1] and in the experiment on CCRF-CEM were 0.029 µM and 0.0016 µM, respectively.

As to `COc1cc(-c2c(-c3ccc4[nH]ccc4c3)c(=O)c2=O)cc(OC)c1OC`, the IC50 with HepG2 was found to be 0.006 µM; in the experiment on CCRF-CEM, 0.0154 µM; with Bel-7402 [2] it was 1.5 µM; in the experiment with SMMC-7721 it was 0.646 µM.

Turning to `COc1ccc(-c2c(-c3cc(OC)c(OC)c(OC)c3)c(=O)c2=O)cc1[N+](=O)[O-]`, in the experiment on CCRF-CEM, the IC50 was found to be 12.2 µM.

As to `COc1ccc(-c2c(-c3cc(OC)c(OC)c(OC)c3)c(=O)c2=O)cc1O`, the IC50 with MCF7 [1] stood at 0.006 µM; in the experiment on HepG2 it was 0.014 µM; with CCRF-CEM it was 0.0017 µM; in the experiment with Bel-7402 [2] it was 0.309 µM; in the experiment with SMMC-7721, 1.52 µM; in the experiment with SW1990 it was 0.245 µM. The IC50 in the experiment on HCT-116 turned out to be 0.005 µM. In addition, the “Ratio IC50” value in the experiment on MCF7 [3] and in the experiment with Bel-7402 [4] was 5 throughout. Further, the result in the experiment with MCF7 [5] was Active.

As to `COc1ccc(-c2c(-c3ccc(OC)c(OC)c3OC)c(=O)c2=O)cc1`, the IC50 in the experiment on CCRF-CEM came to 2.48 µM.

Regarding `COc1ccc(-c2c(-c3cc(OC)c(OC)c(OC)c3)c(=O)c2=O)cc1N`, the IC50 worked out at 0.164 µM in the experiment with MCF7 [1]; 0.005 µM with HepG2; 0.0014 µM in the experiment on CCRF-CEM; 0.014 µM in the experiment with Bel-7402 [2]; 0.19 µM in the experiment on SMMC-7721; 1.77 µM in the experiment with SW1990. The concentration for half-maximal inhibition (IC50) with HCT-116 came out at 0.005 µM. Moreover, the “Ratio IC50” value in the experiment with Bel-7402 [4] is 122. For the same compound, the outcome in the experiment on MCF7 [6] was Active.

`COc1ccc(-c2c(-c3c(OC)cc(OC)cc3OC)c(=O)c2=O)cc1`: in the experiment with CCRF-CEM, the IC50 amounted to 0.85 µM.

In the case of `COc1ccc(-c2c(-c3cc(OC)c(OC)c(OC)c3)c(=O)c2=O)cc1`, in the experiment with CCRF-CEM, the IC50 stood at 0.016 µM.

Take `COc1ccc(-c2c(-c3ccc(OC)cc3)c(=O)c2=O)cc1`: in the experiment with CCRF-CEM, the IC50 is more than 20 µM.

On to `COc1cc(-c2c(-c3cc(OC)c(OC)c(OC)c3)c(=O)c2=O)cc(OC)c1OC`, for which the IC50 in the experiment on CCRF-CEM was more than 20 µM.

Regarding `COc1ccc(-c2c(-c3ccc(OC)cc3OC)c(=O)c2=O)cc1`, in the experiment on CCRF-CEM, the IC50 was 1.51 µM.

As for `COc1cc(-c2c(-c3ccc4cc[nH]c4c3)c(=O)c2=O)cc(OC)c1OC`, the IC50 with HepG2 was 0.006 µM; with CCRF-CEM it was 0.0066 µM; in the experiment on Bel-7402 [2] it was 3.62 µM; in the experiment on SMMC-7721 it was 2.54 µM.

In the case of `COc1ccc(-c2c(-c3cc(OC)c(OC)c(OC)c3)c(=O)c2=O)cc1F`, the IC50 in the experiment on MCF7 [1] worked out at 0.005 µM; with HepG2, 0.105 µM; in the experiment on CCRF-CEM, 0.0115 µM; with Bel-7402 [2], 0.013 µM; in the experiment with SMMC-7721, 0.176 µM; with SW1990 it was 0.027 µM. Further, in the experiment with HCT-116, the IC50 came to 0.081 µM.

On to `COc1cc(-c2c(-c3ccccc3)c(=O)c2=O)cc(OC)c1OC`, for which the IC50 in the experiment on CCRF-CEM worked out at 16.1 µM.

Consider `COc1ccc(-c2c(-c3cc(OC)c(OC)c(OC)c3)c(=O)c2=O)c(OC)c1`, for which, in the experiment on CCRF-CEM, the IC50 turned out to be 1.77 µM.

Turning to `COc1ccc(-c2c(-c3cc(OC)c(OC)c(OC)c3)c(=O)c2=O)cc1Cl`, the 50% inhibitory concentration (IC50) in the experiment with CCRF-CEM turned out to be 0.136 µM.

As to `COc1ccc(-c2c(-c3cc(OC)c(OC)c(OC)c3)c(=O)c2=O)cc1OC(C)=O`, the IC50 with CCRF-CEM came out at 0.0018 µM.

For `COc1ccc(-c2c(-c3cc(OC)c(OC)c(OC)c3)c(=O)c2=O)cc1OC`, the IC50 in the experiment with CCRF-CEM came out at 0.21 µM.
